Data taken from patent US20110250294A1, “COMBINATIONS OF PRESERVATIVE COMPOSITIONS FOR OPHTHALMIC FORMULATIONS” (ALLERGAN, INC., priority 2010, published 2011).

Test system: S. aureus, P. aeruginosa, c. albicans, E. coli and/or A. niger
Assay: abbreviated preservative efficacy test against Ph Eur-A (EP-A) and Ph Eur-B (EP-B) criteria
Format: cell-based
Conditions: 20 ppm BAK alone in ophthalmic solution
Method: Each of these formulations is tested by performing an abbreviated preservative efficacy test using test organisms S. aureus, P. aeruginosa, c. albicans, E. coli and/or A. niger. The formulations are tested against United States Preservative Efficacy Test (USP), European Efficacy Test-A (EP-A) and European Efficacy Test-B (EP-B) criteria as indicated. Ten (10) ml of each formulation is challenged with approximately 10^5 cfu/ml of test organism. At appropriate time intervals, the amount of bacterial and fungal survivors are assayed using Dey Engley broth (DE) as the neutralizer media. DE, along with filtration, is sufficient at neutralizing the antimicrobial agents in the compositions. One (1) ml of each sample is diluted into nine (9) ml of DE. One (1) ml of the 1:10 dilution is filtered through a 0.45 µm filter and washed with 100 ml of a saline/polysorbate 80 solution. After washing the filtrate a second time with 100 ml of saline/polysorbate 80 solution, the filtrate is placed onto a TSA plate for bacteria and SAB for fungi.

For benzalkonium chloride [BAK], the “Ph Eur-B & A criteria (pass/fail)” value was “failed”.
